In one data set the test system is H9. Briefly: Effective dose against H9 cell lines. Particulars: Homo sapiens. The data set is classed as functional, cell-based.
Data set [1] in a line: Therapeutic index valued has been determined in H9 cells. The data set is classed as cell-based. Conditions: human, read-out: Therapeutic index.

The compound `O=c1cc(-c2ccccc2)oc2cc(O)cc(O)c12` [CHRYSIN] yielded an EC50 with H9 of 5 µM. Further, the selectivity ratio in data set [1] came to 9.

Broadly, the EC50 is the concentration that produces a half-maximal response. Read a high EC50 as a need for much substance.

Values taken from ChEMBL document CHEMBL1129311, “Antitumor agents. 166. Synthesis and biological evaluation of 5,6,7,8-substituted-2-phenylthiochromen-4-ones” (J Med Chem, 1996).
